These are literature values, as cited in article PMC8067797, “An In Vivo Predictive Dissolution Methodology (iPD Methodology) with a BCS Class IIb Drug Can Predict the In Vivo Bioequivalence Results: Etoricoxib Products” (Pharmaceutics, 2021).

Details of data set [1]: method as in Okumu et al. [7]. Conditions: ref Okumu et al. [7].
Data set [2] deals with Caco-2. As to conditions: used for plasma simulations; ref [6].
Details of data set [3]: method as in Schwartz et al. [23]. As to conditions: ref Schwartz et al. [23].
Experiment in data set [4]: not given
The source holds these as a separate data set.

Experiment in data set [5]: not given
The source holds these as a separate data set.

Setting [6] is: curve fitting of literature data, ref [6].

≈ marks a conversion by molar mass, not a printed value. Where “and” joins values, the source holds several entries; their conditions need not be identical. Equal entries are not always repeated. Where two headings read alike, the source gives them in different places.

`Cc1ccc(-c2ncc(Cl)cc2-c2ccc(S(C)(=O)=O)cc2)cn1` [ETO, Etoricoxib]: in data set [1], the “precipitation in transfer system” value is listed as “did not observe precipitation”. For the same compound, the “supersaturation ratio (dissolved concentration / equilibrium solubility)” value in data set [1] (transfer system) is given as “below 3”. Moreover, the BCS classification entry (low solubility pH 4–7, high permeability) was “BCS class II”. The lipophilicity (logP) (as a rule, a log measure of how a compound divides between an organic and an aqueous phase) (ref [14]) is 2.79 and 2.794. Moreover, the pKa (usually the negative logarithm of the acid dissociation constant) (weak base, ref [6],[7]) is recorded as 4.96. In data set [2], the “Effective Permeability Small Intestine—Peff” value is recorded as 1.71 cm/h. The “reduction of plasma Cmax” value in data set [3] (with calcium carbonate) was 23%; in data set [3] (with magnesium and aluminum hydroxide), 15%. For the same compound, in data set [4] (average value, curve fitting of literature data, ref [6],[9],[21]), the “Central compartment volume—Vc” value is listed as 27.40 L. For the same compound, in data set [4] (setting [6]), the “Distribution rate constant from central to peripheral compartment—k12” value was 0.6180 h⁻¹. Also, the “Distribution rate constant from peripheral to central compartment—k21” value in data set [4] (setting [6]) is 0.2820 h⁻¹. The “Elimination rate constant from central compartment—ke” value in data set [4] (setting [6]) was 0.0899 h⁻¹. Besides, in data set [4] (dose range 30–240 mg, ref [8]), the Pharmacokinetics dose linearity entry is listed as “linear”. Besides, in data set [4] (oral dosing, ref [8]), the oral bioavailability result was “up to 100%”. Besides, the Oral absolute bioavailability in data set [4] (ref [9]) is 83%; in data set [4] (ref [10]) it was “practically complete”. The “Cs, solubility” value in data set [5] (pH 4.5, ref [7]) is 0.44 mg/mL. In data set [5] (pH 6.8, ref [7]), the “solubility in FaSSIF or simulated intestinal fluids (SIF phosphate buffer)” value was 0.14 mg/mL (≈ 0.39 mM). Also, the “solubility in the stomach” value in data set [5] (ref Mitra el al. [6]) is 25 mg/mL (≈ 69.7 mM).
